Data on one compound can be found in patent publication US9449726B2, “100Mo compounds as accelerator targets for production of 99mTc” (Washington University, priority 2013, dated 2016).

“Also recorded” adds a separate entry of the source.

For this data set, the system named is normal CD1 mice. The data set is described as follows: SPECT/CT imaging of ^99mTc-MDP in small animals. In kind it is in vivo. As for the experimental part: Preparation of ^99mTc-methylene diphosphonate (^99mTc-MDP) and Animal Imaging Studies. All animal studies were approved by the Animal Studies Committee at Washington University. ^99mTc-MDP was prepared using commercially available kits. 3.9 mg of a sterile lyophilized powder containing methylene diphosphonate as the main constituent, under the trade name MDP-BRACCO™ (Bracco Diagnostics Inc., Princeton, N.J.) was dissolved in 135 μL saline solution. From this solution 10 μL was pipetted and added to the 400 μL of 1.6×10^8Bq (4.3 mCi)^99mTcO4^− containing saline solution. Radio-ITLC was performed on this solution as described above. 100 μL of the prepared radiopharmaceutical with an activity of 2.0×10^7 Bq (0.55 mCi) was injected into one month old normal CD1 mice via tail vein followed by small animal SPECT/CT imaging (nanoSPECT, Bioscan, Washington D.C.). CT scans were performed using a tube voltage of 45 kV and a scan time of 1.5 seconds per projection while the animals were anesthetized by isofluorane. SPECT data were collected by monitoring in as helical scan at 45 projections and 60 seconds per projection using a 9-pinhole low energy collimator. SPECT images were collected for 45 minutes at 1.5, 3 and 4 hours post injection. The CT and SPECT images were reconstructed and colocalized using InVivoScope (inviCRO, LLC, Boston Mass.) and HiSPECT (Bioscan, Washington, D.C.).
In these experiments, activities of 2.0×10^7Bq of ^99mTc were injected into each mouse. Scan times of 45 minutes were employed in imaging while each mouse was anesthetized with isoflurane. FIG. 5 illustrates SPECT images of mice imaged at (a) 1.5 hours (b) 3 hours and (c) 4 hours post injection.

With `O.O.O=P([O-])([O-])CP(=O)([O-])[O-].[99Tc+4]` [^99mTc-MDP, ^99mTc-methylene diphosphonate], the “SPECT images: uniformity of uptake in the backbone” value (CD1 mice, tail vein) is reported as “relatively uniform”. Moreover, for the setting “CD1 mice, tail vein, 1.5 hours post injection (FIG. 5A)”, the “SPECT images: activity at the earliest time point” value was “activity in the kidneys and bladder as expected; also recorded: activity was seen in the excretory organs as shown in FIG. 5A, namely the kidneys and bladder”. In addition, under “CD1 mice, tail vein, 3 hours and 4 hours post injection (FIGS. 5B and 5C)”, the “SPECT images: change of activity as time progressed” value is “clearance of radioactivity from these organs and increased accumulation in the bones and joints”. Also, where the note is “CD1 mice, tail vein, backbone and joints”, the “SPECT images: regional uptake in the skeleton” value was “high activity uptake in the cervical, thoracic and lumbar regions of the backbone and major joints”. Under “one month old normal CD1 mice, tail vein injection, 2.0×10^7 Bq (0.55 mCi), imaged 1.5, 3 and 4 hours post injection”, the “SPECT images: tissue uptake of ^99mTc” value was “accumulation of ^99mTc in the bones and joints; also recorded: uptake of the ^99mTc in the bones as expected”.
